Source: patent publication US20240131173A1, “PROTACS WITH TRANSCRIPTION FACTOR TARGETING MOIETIES” (Beth Israel Deaconess Medical Center, Inc., priority 2021, published 2024)

Key:
HeLa cells = assay: Cell growth curve assay (cell number); format: cell-based, human; conditions: 10 ug/mL
Protocol: For cell growth curve assay, HeLa cells (10, 000/well) in 12-well plate were transfected with individual TF-PROTAC, then the cells were trypsined and the cell number were counted at indicated time. For the clonal formation assay, HeLa cells were transfected with individual TF-PROTAC for 12 hours, followed by further plated into 6-well plate (1,000/well). Three weeks later, the cells were fixed in fixation buffer (acetic acid: methanol=1:7) and stained with 0.4% crystal violet in 20% ethanol. Then clonal number were quantified by Image J software. As various changes can be made in the above-described subject matter without departing from the scope and spirit of the present disclsoure, it is intended that all subject matter contained in the above description, or defined in the appended claims, be interpreted as descriptive and illustrative. Many modifications and variations of the present disclosure are possible in light of the above teachings. Accordingly, the present description is intended to embrace all such alternatives, modifications and variances which fall within the scope of the appended claims.

p65 = molecular target: T1, p65 (Homo sapiens, UniProt P19838+Q04206); assay: Global proteomic study by quantitative mass spectrometry in HeLa cells; format: cell-based; conditions: 12 hours, versus vehicle
T1 construct: endogenous in cells; host or cells: HeLa
Protocol: HeLa cells were treated with either vehicle or dNF-κB #16 for 12 hours, washed twice with cold PBS, and then harvested in PBS to pellet down cells. Cell pellets were resuspended in lysis buffer ([…], 50 mM Tris-HCl, pH 8.0), reduced with dithiothreitol (5 mM final) for 30 min at room temperature, and alkylated with iodoacetamide (15 mM final) for 45 min in the dark at room temperature. Samples were diluted 4-fold with digestion buffer (25 mM Tris-HCl, pH 8.0, 1 mM CaCl2) and digested with trypsin at 1:100 ratio (trypsin/protein, w/w) overnight at room temperature. Peptides were desalted on home-made C18 stagetips. There were two biological samples at each condition.
Dried peptides were dissolved in 0.1% formic acid, 2% acetonitrile. Peptide concentration was measured with Pierce™ Quantitative Colorimetric Peptide Assay (Thermofisher). 0.5 ug of peptides were analyzed on a Q-Exactive HF-X coupled with an Easy nanoLC 1200 (Thermo Fisher Scientific, San Jose, CA). Peptides were loaded on to a nanoEase MZ HSS T3 Column (100 Å, 1.8 μm, 75 μm×150 mm, Waters). […]
Mass spectra were processed, and peptide identification was performed using the MaxQuant software version 1.6.10.43 (Max Planck Institute, Germany). […] Quantitation using iBAQ intensity (Intensity-Based Absolute Quantification) was performed with a p-value of 0.01 to report statistically significant abundance fold-changes.

T1 sequence (Q04206 whole entry): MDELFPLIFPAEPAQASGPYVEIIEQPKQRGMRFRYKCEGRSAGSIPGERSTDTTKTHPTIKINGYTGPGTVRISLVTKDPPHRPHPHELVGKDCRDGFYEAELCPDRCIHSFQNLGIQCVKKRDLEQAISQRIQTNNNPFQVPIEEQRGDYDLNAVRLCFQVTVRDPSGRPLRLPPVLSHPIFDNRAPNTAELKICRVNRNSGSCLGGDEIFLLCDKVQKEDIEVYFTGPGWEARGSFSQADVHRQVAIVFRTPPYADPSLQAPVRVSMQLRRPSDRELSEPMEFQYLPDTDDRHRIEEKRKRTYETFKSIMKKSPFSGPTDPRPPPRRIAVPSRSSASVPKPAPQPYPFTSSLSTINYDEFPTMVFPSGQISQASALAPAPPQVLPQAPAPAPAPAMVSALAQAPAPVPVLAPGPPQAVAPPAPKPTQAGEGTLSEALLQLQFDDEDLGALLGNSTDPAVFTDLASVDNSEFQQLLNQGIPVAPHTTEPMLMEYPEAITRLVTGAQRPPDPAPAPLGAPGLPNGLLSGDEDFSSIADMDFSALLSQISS
T1 sequence (P19838 1-433 limits assumed): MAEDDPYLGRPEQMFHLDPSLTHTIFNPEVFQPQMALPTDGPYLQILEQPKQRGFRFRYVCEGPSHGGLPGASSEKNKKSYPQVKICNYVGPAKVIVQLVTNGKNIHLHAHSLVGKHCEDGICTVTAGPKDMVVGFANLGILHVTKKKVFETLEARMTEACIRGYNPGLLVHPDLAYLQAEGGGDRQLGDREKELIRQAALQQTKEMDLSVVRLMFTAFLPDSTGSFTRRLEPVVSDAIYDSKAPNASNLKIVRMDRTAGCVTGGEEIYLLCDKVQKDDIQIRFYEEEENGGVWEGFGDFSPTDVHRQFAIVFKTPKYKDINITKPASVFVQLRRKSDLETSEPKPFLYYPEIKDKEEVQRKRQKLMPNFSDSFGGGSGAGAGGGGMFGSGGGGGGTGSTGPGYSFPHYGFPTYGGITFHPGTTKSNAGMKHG

In the case of “dNF-κB #16 (TGGGGACTTTCCAGTTTCTGGAAAGTCCCCA; decoy; VHL ligand conjugate via PEG3 linker, further chemistry not given here)”, the “proliferation of HeLa cells (cell number)” value (HeLa cells) is reported as “repressed the proliferation of HeLa cells” and the “p65 level in global proteomics” value (p65) is reported as “significant degradation of p65”.
